Source: PMC11237012, “Synthesis and preliminary evaluation of novel PET probes for GSK-3 imaging” (Scientific Reports, 2024)

Tests used:
[1] = Radiochemical stability in human serum (rad-TLC); type: in vitro ADME; conditions: 37 °C
Description: (§1) The stability of PET probes [^18F]2 and [^18F]6 was measured in isotonic NaCl solution (0.9% NaCl) and mouse and human serums at 37 °C for up to 120 min by rad-TLC at 0 min, 30 min, 60 min and 120 min post incubation. The results obtained are presented in Fig. 5 and SI-Figs. S10–S15, SI-Table S1. […] The plausible explanation of the instability of [^18F]6 could be attributed to the covalent interaction of [^18F]6’s SO2F group with primary amines of amino acid residues present in the protein rich mouse and human serums. In fact, in an unrelated study, Zhao et al. reported formation of sulfonamide bond between sulfuryl fluoride and primary amine of conserved lysine residues of different kinases. […] Based on 2’s favorable blood–brain barrier permeability, nanomolar binding affinity and PET probe [^18F]2’s excellent stability in both mouse and human serums, further in vivo evaluations were performed only with PET probe [^18F]2.
(§2) Stability of [^18F]2 and [^18F]6 was assessed in isotonic NaCl solution and human and mouse serums. To perform this stability assay, 100 µL of [^18F]2 (~ 37.0 MBq) or 100 µL of [^18F]6 (~ 37.0 MBq) as in final formulation was added to 100 µL of human serum or mouse serum in a microcentrifuge tube. The resultant mixture was incubated at 37 °C for 120 min. To assess the radiochemical stability of the probes, a small aliquot (~ 0.5 µL) was taken out from the mixture in triplicate at 0 min, 30 min, 60 min and 120 min during incubation, and analyzed on a rad-TLC using 0.5:9.5 methanol: chloroform as a mobile phase using i-TLC to estimate the stability of [^18F]2 or [^18F]6 at different time points post-incubation. After Stability preparative processes initial i-TLC development was considered as 0 min.

[2] = Radiochemical stability in mouse serum (rad-TLC); type: in vitro ADME; conditions: 37 °C
Description: as §1, §2

Measured: Percentage of intact probe

O=C(Nc1cnccc1-c1ccc([18F])cc1)c1ccnc(NC(=O)C2CC2)c1 [[^18F]2]
100 ± 0.0%: [1]; 0 min | [1]; 30 min | [1]; 60 min | [2]; 0 min | [2]; 30 min | [2]; 60 min
